Measured values taken from patent publication US4853403A, “3-phenylthiomethylstyrene derivative, process for preparing the same, and antiallergic agent and tyrosinekinase inhibiting agent containing the same” (Kanegafuchi Kagaku Kogyo Kabushiki Kaisha, priority 1985, dated 1989).
Like-named read-outs stand apart in the source and are kept apart here.

How the values were obtained:
[1] = tested on: antigen-induced anaphylactic shock death; test: Protective effect against anaphylactic shock in actively sensitized guinea pigs; assay type: in vivo, guinea pig (male); conditions: Cavia porcellus, oral, 30 minutes before antigen inhalation, survival 90 minutes or more, read-out: Protecting Effect (Number of test animal survivied/Number of test animal) (converted)
Procedure: [III] Protective effect against anaphylactic shock in actively sensitized guinea pigs
Antigen-induced anaphylactic shock death was observed according to John P. Devlin [Pulmonary and Antiallergic Drugs, John Wiley & Sons, 155 (1985)].
Each 100 mg/kg of ovalbumin dissolved in physiological saline was injected into peritoneal cavity and into gluteus of male guinea pigs weighing 250 to 350 g. 3 Days later, the animals were further injected intraperitoneally with ovalbumin (100 mg/kg). Those animals were employed for testing 3 to 4 weeks after first sensitization. Actively sensitized guinea pigs were pretreated subcutaneously with pyrilamine (1 mg/kg, 30 min.) to suppress histamine-dependent response and with propanolol ([…], 10 min.) to enhance the response induced by other than histamine before the antigen.
The animal was placed in a desiccator with a capacity of about 5 l and 0.5% aqueous solution of ovalbumin was inhaled with ultrasonic type nebulizer for five minutes. Anaphylactic shock death was observed and the animals survived for 90 minutes or more after antigen were estimated to be protected. The compounds of the present invention and antiasmatic agent were administered orally 30 minutes before the antigen inhalation. The control received vehicle alone similarly.

[2] = target: T1, epidermal growth factor acceptor-tyrosinekinase complex (Homo sapiens, UniProt P00533); test: Tyrosinekinase inhibitory activity (A-431 membrane specimen, EGF-stimulated, [γ-32P]ATP); assay type: biochemical, human (A-431 cell line derived from human cancerous cell); conditions: read-out: Inhibition rate (tyrosinekinase)
T1 construct: endogenous in cells; host or cells: A-431 (membrane specimen, not solubilized)
Procedure: Tyrosinekinase inhibitory activity of the compound of the present invention was measured by employing a method for measuring tyrosinekinase activity by G. Carpentor or by S. Cohen et al. [J. Biol. Chem., 254, 4884 (1979); J. Biol. Chem., 257, 1523 (1982)].
Cell line A-431 derived from human cancerous cell was cultured at 37° C. under the condition of 5% CO2 in Dulbecco's modified Eagle medium (made by DAINIPPON PHARMACEUTICAL CO., LTD.) containing 10% fetal bovine serum, 50 μg/ml of streptomycin, 50 IU/ml of penicillin G and 50 μg/ml of canamycin. The obtained cells were treated according to the above Cohen or Graham et al. to give membrane specimen containing epidermal growth factor acceptor-tyrosinekinase complex (hereinafter referred to as "membrane specimen"). The membrane specimen was employed in the following measurement without solubilization.
Sample dissolved in dimethylsulfoxide was added to a mixture of 20 mM of N-2-hydroxyethylpyperadino-N'-2-ethanesulfonate buffer (pH 7.4), 1 mM of MnCl2, 7.5 μg of bovine serum albumin and the membrane specimen (10 μg as protein). After incubation at 0° C. for 5 minutes, 100 ng of epidermal growth factor (hereinafter referred to as "EGF" was added and the mixture was further incubated at 0° C. for 15 minutes. [γ-^32 P]ATP (3000 Ci/mmol, 0.1 μCi) was added to make final volume of 70 μl. After incubation at 0° C. for 15 minutes, 50 μl of the reaction solution was soaked into Wattman 3 MM filter paper and immediately the reaction was stopped by 10% trichloroacetic acid-10 mM sodium pyrophosphate aqueous solution. The filter paper was sufficiently washed with the same solution and then washed with ethanol and dried. Radioactivity present in the filter paper was measured by liquid scintillation counter (A). Similarly, radioactivity was measured in case of the reaction without EGF (B), the reaction without the sample (C), and the reaction without both EGF and the sample (D) as a control.
Tyrosinekinase inhibition rate (%) was calculated by the following equation. [formula]

[3] = tested on: homologous passive cutaneous anaphylaxis (PCA); test: Inhibitory activity against homologous passive cutaneous anaphylaxis (PCA) in rats; assay type: in vivo, rat (male Wistar); conditions: oral
Procedure: [II]Inhibitory activity against homologous passive cutaneous anaphylaxis (PCA) in rats
Antiserum was prepared according to I. Mota [Immunology, 7, 681(1964)] and the PCA reaction was conducted according to Maruyama et al. [Nippon yakurigakkaishi, 74, 179(1978)].
(1) Preparation of antiserum
An ovalbumin solution (2 mg/ml) was injected intramuscularly into both thighs of male Wistar rats weighing 200 to 260 g in a volume of 0.5 ml/100 g body weight, and pertussis vaccine (Bordetella pertussis, 2×10^10 /ml, Chibaken Kessei Kenkyujo) was intraperitoneally administered at 1 ml/rat. Twelve days later, blood was taken from posterior aorta under ether anesthesia and antiserum was stored at -80° C.
Group of 4 male Wistar rats weighing 180 to 210 g were employed. Back of the animals was shaved and each 0.05 ml of antiserum (1:32 dilution) was injected intradermally at four sites on the back. After 48 hours, 1 ml of a mixture of ovalbumin (1 mg/ml) and Evans blue (5 mg/ml) was injected intravenously into the tail. 30 Minutes later, the animals were killed under ether anesthesia. The blue-dyed area (mm^2) formed was measured and an inhibition rate(%) was calculated as compared with control.
Test compound suspended in a 2.5% acacia containing 0.2% Tween 80 was administered orally in a volume of 0.5 ml/100 g body weight 1 hour before the antigen. Tranilast was administered orally 30 minutes before the antigen.

[4] = tested on: SRS-A biosynthesis or release; test: SRS-A biosynthesis or release inhibitory activity (ovalbumin-challenged sensitized guinea pig lung fragments, bioassay on guinea pig ileum); assay type: cell-based, guinea pig (male Hartley); conditions: Cavia porcellus, read-out: Inhibition rate (SRS-A biosynthesis or release)
Procedure: [I] SRS-A biosynthesis or release inhibitory activity
SRS-A biosynthesis or release inhibitory activity was examined according to Koda et al. [Nippon yakurigakkaishi, 66, 194(1970)] and Kono-Watanabe et al. [J. Immunology, 125, 946(1980)].
Male Hartley guinea pigs weighing 350 to 450 g were sensitized by injecting once each 1 ml of an ovalbumin (100 mg/ml) into gluteus and peritoneal cavity. Four weeks after the injection, the animals were killed and then immediately the lung was perfused with cooled Tyrode's solution to remove blood. The lung was chopped into about 2 mm fragments and 500 mg of the fragments were suspended in 4.84 ml of Tyrode's solution, to which 0.01 ml of the test compound dissolved in dimethylsulfoxide (DMSO) was added. After incubation at 37° C. for 10 minutes, 0.15 ml of an ovalbumin (10 mg/ml) was added, followed by incubation at 37° C. for 20 minutes. In control, DMSO was added and the reaction was conducted in the same manner. The reaction mixture was filtered with gauze.
An amount of SRS-A in the filtrate was bioassayed using guinea pig ileum; i.e. the ileum (length: 2 to 3 cm) was suspended in Magnus tube containing aerated Tyrode's solution at 31° C. and, after the plateau of contraction was obtained, an amount of SRS-A in the above filtrate was bioassayed in the presence of 1 μM of atropine and 1 μM of pyrilamine. Inhibition rate (%) was calculated from a contraction in control as 100.

[5] = 100 mg/kg, 1 hour before the antigen

T1 sequence (P00533 25-1210): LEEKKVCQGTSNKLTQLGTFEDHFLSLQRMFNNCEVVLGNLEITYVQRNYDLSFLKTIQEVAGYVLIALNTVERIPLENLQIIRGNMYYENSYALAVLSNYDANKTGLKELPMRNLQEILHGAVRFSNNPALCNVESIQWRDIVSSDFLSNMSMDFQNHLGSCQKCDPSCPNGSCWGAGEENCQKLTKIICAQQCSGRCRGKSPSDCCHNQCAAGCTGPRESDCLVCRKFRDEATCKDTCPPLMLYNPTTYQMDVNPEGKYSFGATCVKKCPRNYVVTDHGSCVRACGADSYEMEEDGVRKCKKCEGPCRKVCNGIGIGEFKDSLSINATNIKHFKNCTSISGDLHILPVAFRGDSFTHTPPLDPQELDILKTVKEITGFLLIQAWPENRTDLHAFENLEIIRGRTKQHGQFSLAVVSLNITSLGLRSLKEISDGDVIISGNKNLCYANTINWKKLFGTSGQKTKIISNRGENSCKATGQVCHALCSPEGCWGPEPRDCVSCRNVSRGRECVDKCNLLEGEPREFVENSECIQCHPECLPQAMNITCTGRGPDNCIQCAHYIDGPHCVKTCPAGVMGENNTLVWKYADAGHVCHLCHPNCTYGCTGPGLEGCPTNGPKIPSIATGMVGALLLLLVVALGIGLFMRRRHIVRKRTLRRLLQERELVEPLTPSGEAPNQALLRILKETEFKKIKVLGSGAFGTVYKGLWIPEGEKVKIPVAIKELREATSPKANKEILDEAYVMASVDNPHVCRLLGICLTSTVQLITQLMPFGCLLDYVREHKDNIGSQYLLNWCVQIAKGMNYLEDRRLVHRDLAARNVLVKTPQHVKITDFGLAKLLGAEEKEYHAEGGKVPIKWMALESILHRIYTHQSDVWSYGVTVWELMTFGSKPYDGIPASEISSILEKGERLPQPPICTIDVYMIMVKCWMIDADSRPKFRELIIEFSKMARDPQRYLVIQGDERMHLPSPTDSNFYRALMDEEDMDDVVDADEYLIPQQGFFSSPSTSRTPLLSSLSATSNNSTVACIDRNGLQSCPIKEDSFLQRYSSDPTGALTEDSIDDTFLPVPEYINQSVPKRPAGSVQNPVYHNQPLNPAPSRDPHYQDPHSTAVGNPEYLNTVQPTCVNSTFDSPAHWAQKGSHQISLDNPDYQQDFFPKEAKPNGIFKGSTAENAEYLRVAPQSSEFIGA
T1 sequence (P01132 977-1029 partner limits assumed): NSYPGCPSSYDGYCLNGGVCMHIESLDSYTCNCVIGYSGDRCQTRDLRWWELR

SMILES | responders at 100 mg/kg [1] | inhibition at 10 µM ([2]; 10 μM) | responders at 30 mg/kg [1] | further results
CCOc1cc(C=C(C#N)C(N)=O)cc(CSc2ccc([N+](=O)[O-])cc2)c1O [III] | 25% | 42% |  | 
CCOc1cc(C=C(C#N)C(N)=O)cc(CSc2ccc(OC)cc2)c1O [II] |  | 42% | 75% | 
CCOc1cc(C=C(C#N)C(N)=O)cc(CSc2ccc(Br)cc2)c1O [IV] | 25% | 74% |  | 
CCOc1cc(C=C(C#N)C(N)=O)cc(CSc2ccc(C)cc2)c1O [IX] |  | 58% | 50% | 
CCOc1cc(C=C(C#N)C(N)=O)cc(CSc2ccccc2)c1O [I] | 40% | 100% |  | inhibition at 100 µM [2]: 100%; Inhibition rate (PCA reaction, blue-dyed area) [3, 5]: 21%; inhibition at 100 µM [4]: 92%
CCOc1cc(C=C(C#N)C(N)=O)cc(CSc2cccc(OC)c2)c1O [VIII] | 25% | 72% |  | 
CCOc1cc(C=C(C#N)C(N)=O)cc(CSc2ccccc2OC)c1O [VII] |  | 77% | 75% | 
CCOc1cc(C=C(C#N)C(N)=O)cc(CSCCCc2ccccc2)c1O [VI] | 25% | 55% |  | 
CCOc1cc(C=C(C#N)C(N)=O)cc(CSc2c(F)c(F)c(F)c(F)c2F)c1O [V] |  | 60% | 50% | 
CCOc1cc(C=C(C#N)C(N)=O)cc(CSc2ccccc2)c1OC [XIII] |  | 31% | 50% | 
COc1cc(C=C(C#N)C(N)=O)cc(CSc2ccccc2)c1O [XII] |  |  | 50% | inhibition at 10 µM [2]: 86%
CCOc1cc(C=C(C#N)C(N)=O)cc(CSc2ccc(Cl)cc2)c1O [XIV] |  | 29% | 100% | 
N#CC(=Cc1cc(O)c(O)c(CSc2ccccc2)c1)C(N)=O [XIX] | 25% | 100% |  | 
CCOc1cc(C=C(C#N)C(N)=O)cc(CSc2cccc(Cl)c2)c1O [XI] | 25% | 54% |  | 
CCOc1cc(C=C(C#N)C(N)=O)cc(CSc2ccc(C(C)(C)C)cc2)c1O [XVIII] |  | 37% | 75% | 
CCOc1cc(C=C(C#N)C(N)=O)cc(CSc2ccccc2)c1OC(C)=O [XVII] | 25% | 36% |  | 
CCOc1cc(C=C(C#N)C(N)=O)cc(CSc2ccccc2)c1OC(=O)c1ccccc1 [XVI] | 25% | 40% |  | 
CCOc1cc(C=C(C#N)C(N)=O)cc(CSc2ccc(Cl)c(Cl)c2)c1O [XV] |  | 69% | 100% | 

SMILES | responders at 100 mg/kg [1] | inhibition at 10 µM ([2]; 10 μM) | responders at 30 mg/kg [1] | further results
CCOC(=O)C(=Cc1cc(CSc2ccc(C(C)(C)C)cc2)c(O)c(OCC)c1)S(C)(=O)=O [XXIII] | 25% | 40% |  | 
CCOC(=O)C(=Cc1cc(CSc2ccccc2)c(O)c(OCC)c1)S(C)(=O)=O [XXII] | 20% | 64% |  | inhibition at 100 µM [2]: 80%; Inhibition rate (PCA reaction, blue-dyed area) [3, 5]: 26%; inhibition at 100 µM [4]: 27%
CCOc1cc(C=C2CCOC2=O)cc(CSc2ccccc2)c1O [XXIV] | 20% | 33% |  | inhibition at 100 µM [2]: 50%; Inhibition rate (PCA reaction, blue-dyed area) [3, 5]: 26%; inhibition at 100 µM [4]: 28%
CCOc1cc(C=C2CCNC2=O)cc(CSc2ccc(OC)cc2)c1OC [XXIX] | 25% | 30% |  | 
CCOc1cc(C=C(C#N)C(N)=O)cc(CSc2ccccc2C(=O)OC)c1OC(C)=O [XXI] | 25% | 31% |  | 
COc1cc(C=C2CCNC2=O)cc(CSc2ccc(C)cc2)c1O [XXVIII] | 25% | 55% |  | 
O=C1OCCC1=Cc1cc(O)c(O)c(CSc2ccc([N+](=O)[O-])cc2)c1 [XXVI] | 25% | 35% |  | 
CCOc1cc(C=C2CCOC2=O)cc(CSc2ccc(Cl)c(Cl)c2)c1O [XXV] |  | 27% | 75% | 
CCOc1cc(C=C2C(=O)NN(c3ccccc3)C2=O)cc(CSc2ccc(Br)cc2)c1O [XXXIII] |  | 71% | 75% | 
COc1cc(C=C2C(=O)NN(c3ccccc3)C2=O)cc(CSc2ccccc2)c1O [XXXII] | 25% | 100% |  | 
O=C1NN(c2ccccc2)C(=O)C1=Cc1cc(O)c(O)c(CSc2ccccc2)c1 [XXXIV] |  | 96% | 50% | 
CCOc1cc(C=C2C(=O)NN(c3ccccc3)C2=O)cc(CSc2ccc(Cl)cc2)c1O [XXXVI] | 25% | 91% |  | 
CCCCOc1cc(C=C2C(=O)NN(c3ccccc3)C2=O)cc(CSc2ccccc2)c1O [XXXV] | 25% | 100% |  | 
CCOc1cc(C=C2CCNC2=O)cc(CSc2ccccc2)c1OC(=O)c1ccccc1 [XXX] |  | 32% | 50% | 
CCOc1cc(C=C(C#N)C(N)=O)cc(CSc2ccc(O)cc2)c1O [XX] | 25% | 91% |  | 
CCOc1cc(C=C(C#N)C(N)=O)cc(CSc2c(Cl)cccc2Cl)c1O [X] |  | 44% | 75% | 
Cn1c(=O)c2[nH]cnc2n(C)c1=O [theophylline, reference compound] |  |  | 50% | 
COc1ccc(/C=C/C(=O)Nc2ccccc2C(=O)O)cc1OC [tranilast, reference compound] | 0% |  |  | Inhibition rate (PCA reaction, blue-dyed area) ([3]; 300 mg/kg, 30 minutes before the antigen (tranilast)): 40%
